Reference: US8440638B2, “Compositions and methods for modulating calcium flux, glucose homeostasis and apoptosis” (Wisconsin Alumni Research Foundation, priority 2004, dated 2013)

How the values were obtained:
[1] = tested on: TRPM2-expressing HEK-293 cells; test: Cell viability assay (calcein fluorescence), tet-inducible TRPM2 HEK-293 cells; type: cell-based
Description: Shown are HEK-293 cells (closed diamond) and HEK-293 cells stably transfected with a tet-controlled TRPM2 construct in the presence (open squares) or absence of (open diamonds) tetracycline. […] TRPM2-expressing HEK-293 cells were grown in complete DMEM media and 1 μg/ml tetracycline until 80-90% confluent. One set of cells were re-fed with the same complete media (closed diamonds) and the other set of cells were rinsed with PBS and fed with modified media containing 1 μg/ml tetracycline, 5 mM EGTA and without calcium chloride (open squares). […] HEK-293 (close diamond) and TRPM2 expressing HEK-293 cells in the absence (open diamond) or presence of (closed square) tetracycline were exposed to 0-10 μg/ml cycloheximide for 16 h. Cell viability was determined as described in (a).
TRPM2-expressing HEK-293 cells were exposed to 0-50 μM puromycin for 16 h in the presence (open diamond) or absence (closed diamond) of 500 μM nicotinamide. […] TRPM2-expressing HEK-293 cells were exposed to 0-50 μM puromycin for 16 h in the presence (open diamond) or absence (closed diamond) of 1.5 mM 3-aminobenzamide. Cell survival was determined as described in (a).
HEK-293 and tetracycline (tet)-inducible HEK-293 TRPM2-expressing cells (23) were cultured in DMEM and 10% FBS at 37° C., 5% CO2. Media used to culture tet-inducible HEK-293 cells was supplemented with blasticidin (5 μg ml^−1; Invitrogen) and zeocin (0.4 mg/ml; Invitrogen). To induce expression of TRPM2 in recombinant HEK-293 cells, tetracycline was added to the media at 1 μg ml^−1 (Invitrogen) 24 h prior to experiments. The CRI-G1 rat β-islet tumor cell line was obtained from EACC and cultured in DMEM, 10% FBS and 2 mM glutamine.
HEK-293, tet-inducible HEK-293, and CRI-G1 cells were seeded into 6 well plates at a density of 500,000 cells per well. When cells were 50-70% confluent, puromycin was added to the media at various concentrations for 16 hours. Cell monolayers were rinsed with PBS, after which 0.5 ml of 2 μM calcein in PBS was added directly to the well for 10-20 minutes. Calcein is retained in living, but not dead cells, where it undergoes catalytic conversion into a fluorescent compound Fluorescence in each well was measured in a microplate reader using excitation and emission filters at 485/530 nm, respectively.

[2] = tested on: Sir2 homologs; test: NAD+-dependent histone deacetylase activity of HEK-293 protein extracts; type: biochemical; conditions: data not shown
[3] = tested on: CRI-G1 cells; test: Cell viability assay (calcein fluorescence), CRI-G1 cells; type: cell-based, rat; conditions: 0.5-20 mM nicotinamide, 20 μM puromycin, 16 h
Description: FIG. 4 a) OAADPr gates the endogenous TRPM2 channel in CRI-G1 cells. Left panel: Evolution of currents in CRI-G1 cells in the absence (grey squares) or presence (black circles) of OAADPr (120-250 μM). Shown are average leak subtracted currents from n=3 cells for each condition. Right panel: Representative leak subtracted whole cell I/V curves for peak currents observed in the absence (grey line) and presence (black line) of OAADPr. For the above measurements, CRI-G1 cells were maintained in the whole cell patch clamp configuration as previously described for HEK-293 cells (44). b) Puromycin leads to cell death in CRI-G1 cells. CRI-G1 cells were treated with 0-40 μM puromycin for 16 h. Cell viability was assessed by measuring fluorescence of calcein in live cells. Data obtained from 4 independent experiments were plotted as a percent change in fluorescence compared to those of untreated cells set at a 100%. Error bars indicate the standard deviation from the mean. (Inset) Nicotinamide rescues puromycin-induced death in CRI-G1 cells. […] Cell viability was assessed 16 h later as described above. […] Calcein is retained in living, but not dead cells, where it undergoes catalytic conversion into a fluorescent compound Fluorescence in each well was measured in a microplate reader using excitation and emission filters at 485/530 nm, respectively.

[4] = tested on: insulin-producing β-cells; conditions: prophylactic treatment; alloxan and streptozotocin models (ref. 48); cited from earlier work
[5] = molecular target: T1, endogenous TRPM2 channel (Rattus norvegicus, UniProt E9PTA2); test: Whole cell patch clamp, endogenous TRPM2 channel in CRI-G1 cells; type: cell-based; conditions: OAADPr 120-250 μM in patch pipette, n=3 cells
T1 construct: direct OAADPr-mediated gating of endogenous TRPM2 channels in CRI-G1 cells; endogenous in cells; host or cells: CRI-G1 rat beta-islet tumor cell line
Description: FIG. 4 a) OAADPr gates the endogenous TRPM2 channel in CRI-G1 cells. Left panel: Evolution of currents in CRI-G1 cells in the absence (grey squares) or presence (black circles) of OAADPr (120-250 μM). Shown are average leak subtracted currents from n=3 cells for each condition. Right panel: Representative leak subtracted whole cell I/V curves for peak currents observed in the absence (grey line) and presence (black line) of OAADPr. For the above measurements, CRI-G1 cells were maintained in the whole cell patch clamp configuration as previously described for HEK-293 cells (44). b) Puromycin leads to cell death in CRI-G1 cells. CRI-G1 cells were treated with 0-40 μM puromycin for 16 h. Cell viability was assessed by measuring fluorescence of calcein in live cells. Data obtained from 4 independent experiments were plotted as a percent change in fluorescence compared to those of untreated cells set at a 100%. Error bars indicate the standard deviation from the mean. […] Cell viability was assessed 16 h later as described above. […]
Patch clamp electrophysiology was performed as previously described (23). […] Currents were recorded on an EPC9 patch clamp amplifier with automatic capacitance compensation using a protocol generating a 50 msec voltage ramp from −100 to +100 mv every two seconds at a holding potential of 0 mv (appropriately corrected for liquid junction potential). […]

[6] = Spontaneous breakdown of OAADPr in the patch pipette; type: physicochemical; conditions: multiple experiments
Description: (§1) Patch clamp electrophysiology was performed as previously described (23). Briefly, cells were patch clamped in the whole cell configuration at 25° C. using pipettes with resistances ranging from 2-3 MOhms. Currents were recorded on an EPC9 patch clamp amplifier with automatic capacitance compensation using a protocol generating a 50 msec voltage ramp from −100 to +100 mv every two seconds at a holding potential of 0 mv (appropriately corrected for liquid junction potential). Bath solution included 150 mM NaCl, 2.8 mM KCl, 5 mM CsCl, 1 mM CaCl2, 2 mM MgCl2, and 10 mM Hepes (pH 7.2). Pipette solution included 135 mM CsGlutamate, 1 mM MgCl2, 8 mM NaCl, 10 mM Hepes (pH 7.2), and 10 mM EGTA. For low-resolution presentation of current development over the course of the experiment, instantaneous currents at −80 mv were extracted from each ramp and plotted versus time.

[7] = molecular target: T2, TRPM2 channel (Homo sapiens, UniProt O94759); test: Whole cell patch clamp, TRPM2 channel gating in tet-induced TRPM2-expressing HEK-293 cells; type: cell-based; conditions: OAADPr in patch pipette solution; similar kinetics and dose dependence to ADP-ribose
T2 construct: expressed in transfected cells; host or cells: tetracycline-inducible HEK-293
Description: Shown is the development of whole cell currents over time in TRPM2-expressing HEK-293 cells. Bath solution was standard ringer's, and pipette solution was Cs-based and included 10 mM EGTA to buffer intracellular Ca^2+ to 10 nM. The patch pipette contained various concentrations of (FIG. 1a) ADPr, (FIG. 1b) OAADPr (FIG. 1c) OAADPr and puromycin as indicated in the figure. FIG. 1d.) Cytoplasmic OAADPr esterase activity is inhibited by puromycin. 200 μM O-[^3H]AADPr and 0-100 μM puromycin were added to cytoplasmic HEK-293 extract for 30 min. Percent hydrolysis of O-[^3H]AADPr to [^3H]acetate was measured as described hereinbelow. FIG. 1e.) Nuclear OAADPr acetyltransferase activity is not inhibited by puromycin. HEK-293 nuclear extract was incubated with 200 μM O-[^3H]AADPr in the presence or absence of 100 μM puromycin for 60 min. The reactions were quenched and resolved by HPLC. The radioactivity in collected fractions was determined by liquid scintillation counting. FIGS. 1f-g.) In vivo detection of OAADPr. Mass spectrum of HEK-293 generated OAADPr (peak m/z of 602.0894; the theoretical m/z for OAADPr is 602.0895) after puromycin treatment, with authentic [^13C]-OAADPr (peak m/z of 603.0851 and isotopic distribution of 604.0878 and 605.0928) as a standard. Peak 599.3691 is from the matrix.
as §1, with “For low-resolution presentation of current development over the course of the experiment, instantaneous currents at −80 mv were extracted from each ramp and plotted versus time.” left out

T1 sequence (E9PTA2 whole entry): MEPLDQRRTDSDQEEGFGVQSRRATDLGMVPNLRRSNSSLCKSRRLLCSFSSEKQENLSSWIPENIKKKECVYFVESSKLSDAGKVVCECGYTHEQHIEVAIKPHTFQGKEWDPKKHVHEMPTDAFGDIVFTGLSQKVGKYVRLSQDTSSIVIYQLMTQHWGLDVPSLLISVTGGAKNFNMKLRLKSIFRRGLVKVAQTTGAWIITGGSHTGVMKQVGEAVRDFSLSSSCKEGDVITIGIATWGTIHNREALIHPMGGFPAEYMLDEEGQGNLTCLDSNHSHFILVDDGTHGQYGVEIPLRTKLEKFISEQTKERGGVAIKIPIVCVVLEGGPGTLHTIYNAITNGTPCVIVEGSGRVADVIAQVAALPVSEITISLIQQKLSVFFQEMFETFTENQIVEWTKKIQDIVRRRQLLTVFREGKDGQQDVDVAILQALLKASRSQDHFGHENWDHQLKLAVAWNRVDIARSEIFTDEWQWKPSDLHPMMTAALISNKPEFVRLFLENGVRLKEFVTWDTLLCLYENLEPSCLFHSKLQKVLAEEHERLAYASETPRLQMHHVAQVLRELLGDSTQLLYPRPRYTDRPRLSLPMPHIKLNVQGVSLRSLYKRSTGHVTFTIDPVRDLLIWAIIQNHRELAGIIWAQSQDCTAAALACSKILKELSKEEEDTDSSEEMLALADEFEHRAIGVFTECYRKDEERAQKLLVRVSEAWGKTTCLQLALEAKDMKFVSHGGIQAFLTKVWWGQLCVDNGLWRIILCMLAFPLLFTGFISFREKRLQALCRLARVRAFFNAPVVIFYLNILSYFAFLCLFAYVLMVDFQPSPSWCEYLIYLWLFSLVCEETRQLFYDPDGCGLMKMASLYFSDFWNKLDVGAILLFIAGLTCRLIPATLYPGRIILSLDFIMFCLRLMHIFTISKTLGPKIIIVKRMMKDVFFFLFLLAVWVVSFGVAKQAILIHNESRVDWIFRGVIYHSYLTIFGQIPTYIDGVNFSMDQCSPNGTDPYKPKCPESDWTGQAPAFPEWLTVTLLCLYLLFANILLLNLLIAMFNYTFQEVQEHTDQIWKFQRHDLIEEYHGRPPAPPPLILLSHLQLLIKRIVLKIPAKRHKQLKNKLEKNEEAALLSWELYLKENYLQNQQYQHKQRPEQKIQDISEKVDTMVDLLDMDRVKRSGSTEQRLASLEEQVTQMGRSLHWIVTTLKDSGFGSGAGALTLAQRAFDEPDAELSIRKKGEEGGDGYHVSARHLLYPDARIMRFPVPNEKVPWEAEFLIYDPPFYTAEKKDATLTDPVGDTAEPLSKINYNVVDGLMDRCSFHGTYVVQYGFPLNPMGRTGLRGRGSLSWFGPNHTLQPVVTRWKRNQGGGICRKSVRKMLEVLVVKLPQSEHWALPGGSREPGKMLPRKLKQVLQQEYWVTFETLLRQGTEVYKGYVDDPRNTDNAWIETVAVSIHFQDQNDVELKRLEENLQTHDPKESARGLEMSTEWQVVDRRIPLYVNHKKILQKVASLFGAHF
T2 sequence (O94759 whole entry): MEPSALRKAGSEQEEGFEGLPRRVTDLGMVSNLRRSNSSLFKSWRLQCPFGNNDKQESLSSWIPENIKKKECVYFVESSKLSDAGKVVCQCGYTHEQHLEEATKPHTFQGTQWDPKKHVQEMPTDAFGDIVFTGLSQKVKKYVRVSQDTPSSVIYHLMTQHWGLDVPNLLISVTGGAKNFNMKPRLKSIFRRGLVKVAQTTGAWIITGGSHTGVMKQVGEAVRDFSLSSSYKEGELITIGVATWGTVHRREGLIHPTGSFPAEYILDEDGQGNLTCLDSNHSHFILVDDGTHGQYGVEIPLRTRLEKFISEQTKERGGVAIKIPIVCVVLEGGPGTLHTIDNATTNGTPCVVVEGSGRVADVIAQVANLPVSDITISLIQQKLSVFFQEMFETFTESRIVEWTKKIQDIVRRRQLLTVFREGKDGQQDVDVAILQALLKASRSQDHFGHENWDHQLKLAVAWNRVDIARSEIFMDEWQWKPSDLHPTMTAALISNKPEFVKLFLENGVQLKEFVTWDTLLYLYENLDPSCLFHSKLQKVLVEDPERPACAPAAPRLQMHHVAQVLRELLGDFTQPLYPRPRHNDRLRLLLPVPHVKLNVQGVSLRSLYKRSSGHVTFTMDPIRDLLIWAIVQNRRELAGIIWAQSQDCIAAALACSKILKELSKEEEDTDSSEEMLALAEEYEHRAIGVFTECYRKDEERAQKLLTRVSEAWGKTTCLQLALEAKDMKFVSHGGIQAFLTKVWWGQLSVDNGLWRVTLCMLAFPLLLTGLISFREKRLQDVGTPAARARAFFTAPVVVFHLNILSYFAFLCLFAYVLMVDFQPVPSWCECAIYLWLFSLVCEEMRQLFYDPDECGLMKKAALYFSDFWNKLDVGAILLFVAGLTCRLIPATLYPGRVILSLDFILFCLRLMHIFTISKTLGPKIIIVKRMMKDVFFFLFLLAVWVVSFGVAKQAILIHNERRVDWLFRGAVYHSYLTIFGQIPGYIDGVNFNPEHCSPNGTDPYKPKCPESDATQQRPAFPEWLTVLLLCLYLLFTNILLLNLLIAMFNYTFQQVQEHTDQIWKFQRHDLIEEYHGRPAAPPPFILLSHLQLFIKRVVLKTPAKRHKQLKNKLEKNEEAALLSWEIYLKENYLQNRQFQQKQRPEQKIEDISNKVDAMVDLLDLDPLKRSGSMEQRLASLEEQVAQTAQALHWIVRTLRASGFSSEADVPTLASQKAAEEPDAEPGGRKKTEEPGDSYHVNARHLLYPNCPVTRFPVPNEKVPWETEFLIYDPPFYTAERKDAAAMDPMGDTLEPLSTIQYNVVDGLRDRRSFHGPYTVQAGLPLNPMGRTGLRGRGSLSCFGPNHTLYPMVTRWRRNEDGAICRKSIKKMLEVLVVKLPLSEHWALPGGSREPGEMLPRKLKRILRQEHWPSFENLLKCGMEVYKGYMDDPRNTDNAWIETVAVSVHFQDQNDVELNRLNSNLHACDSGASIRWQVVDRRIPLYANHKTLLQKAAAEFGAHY

NC(=O)c1cccc(N)c1 [3-aminobenzamide]
effect on puromycin-induced cell death ([1]; 1.5 mM 3-aminobenzamide, 0-50 μM puromycin, 16 h): no effect

C[C@@H]1C[C@@H]([C@H](O)CC2CC(=O)NC(=O)C2)C(=O)[C@@H](C)C1 [cycloheximide]
sensitivity of TRPM2 expressing cells to cycloheximide vs cells not over-expressing the channel ([1]; 0-10 μg/ml cycloheximide, 16 h): no significant increased sensitivity

NC(=O)c1cccnc1 [nicotinamide]
NAD+-dependent histone deacetylase activity of protein extracts [2]: inhibited | effect on puromycin-induced death of CRI-G1 cells [3]: blocked | protection from puromycin-induced cell death at high puromycin ([1]; 500 μM nicotinamide, 50 μM puromycin): suppressed | protection from puromycin-induced cell death ([1]; 500 μM nicotinamide, up to 20 μM puromycin, 16 h): completely protect | development of diabetes [4]: suppress the development of diabetes

O-acetyl-ADP ribose [OAADPr]
average currents induced [5]: ~2 nA | spontaneous breakdown of OAADPr to ADPr in the patch pipette [6]: 5-10% | TRPM2 gating in whole cell recordings [7]: induces TRPM2 gating
